COc1cccc(-c2nn(-c3ccccc3)cc2/C=C/C(=O)c2nc3ccccc3[nH]2)c1
solubility (mole fraction)
Conditions	in acetonitrile	in ethanol	in ethyl acetate	in methanol	in n-butanol	in n-pentanol	in n-propanol
298.15 K	2.91e-05	7.24e-05	0.000241	2.71e-05	0.00017	0.000227	0.000126
303.15 K	4.16e-05	8.5e-05	0.000256	3.15e-05	0.000185	0.000274	0.000145
308.15 K	5.87e-05	0.000106	0.000274	3.63e-05	0.000211	0.000312	0.000166
313.15 K	7.62e-05	0.000121	0.000292	4.12e-05	0.00023	0.000381	0.000187
318.15 K	9.21e-05	0.000136	0.000317	4.62e-05	0.000258	0.000427	0.000206
323.15 K	0.000111	0.000148	0.000336	5.15e-05	0.000285	0.000457	0.000231
328.15 K	0.000122	0.000165	0.000365	5.81e-05	0.000311	0.000499	0.000245

COc1ccc(-c2nn(-c3ccccc3)cc2/C=C/C(=O)c2nc3ccccc3[nH]2)cc1
solubility (mole fraction)
Conditions	in acetonitrile	in ethanol	in ethyl acetate	in methanol	in n-butanol	in n-pentanol	in n-propanol
298.15 K	0.000165	0.000352	0.000809	0.000145	0.00133	0.00156	0.00049
303.15 K	0.0002	0.000372	0.000826	0.000149	0.00136	0.00162	0.00052
308.15 K	0.000227	0.000385	0.000846	0.000155	0.00138	0.00168	0.000541
313.15 K	0.00025	0.000399	0.000868	0.00016	0.00142	0.00174	0.000565
318.15 K	0.000282	0.00042	0.000886	0.000167	0.00145	0.00179	0.000586
323.15 K	0.000301	0.00043	0.00091	0.00017	0.00149	0.00185	0.000615
328.15 K	0.000329	0.000452	0.000935	0.000177	0.00151	0.00191	0.000628

O=C(/C=C/c1cn(-c2ccccc2)nc1-c1ccc(Cl)cc1)c1nc2ccccc2[nH]1
solubility (mole fraction)
Conditions	in acetonitrile	in ethanol	in ethyl acetate	in methanol	in n-butanol	in n-pentanol	in n-propanol
298.15 K	0.000116	0.000102	0.000257	4.06e-05	0.00015	0.000253	8.35e-05
303.15 K	0.000135	0.000113	0.00029	5.1e-05	0.000175	0.000275	0.000103
308.15 K	0.000153	0.00012	0.000328	6.74e-05	0.000201	0.000304	0.000121
313.15 K	0.000171	0.000132	0.000385	7.9e-05	0.000216	0.000354	0.000132
318.15 K	0.000182	0.000148	0.000432	9.36e-05	0.00024	0.000387	0.00015
323.15 K	0.000193	0.000155	0.000482	0.000105	0.000258	0.000423	0.000158
328.15 K	0.000211	0.000172	0.000526	0.000117	0.000295	0.000442	0.000167

Source: BigSolDB 2.1
